# Data as given in US20190085024A1, “Alpha-Ketoamide Inhibitors Of Cysteine Proteases” (Phelix Therapeutics, priority 2017, published 2019).
# Read-outs that look alike come from different tables or passages of the source. *1 amine or outer side, *2 acyl side, *3 side chain or, on linkers, in order; H or OH if unused. Where a SMILES comes first, the peptide text is derived from it. [ ]: non-standard residue; d: D form. The star is where a group is joined. 2Nal = N[CH](Cc1ccc2ccccc2c1)C(=O)O; X1 = CCC(C)C(N[*:1])C(=O)C(=O)[*:2]; Cbz = O=C(OCc1ccccc1)*
# Experiments:
# [1] = tested on: MARV WT (Marburg Wild Type); experiment: organism not typed; format: cell-based; conditions: read-out: MARV WT (μM) (Marburg Wild Type)
# [2] = molecular target: T1, Cat K (Homo sapiens, UniProt P43235); experiment: Cat K inhibition; format: biochemical
# T1 sequence (P43235 115-329): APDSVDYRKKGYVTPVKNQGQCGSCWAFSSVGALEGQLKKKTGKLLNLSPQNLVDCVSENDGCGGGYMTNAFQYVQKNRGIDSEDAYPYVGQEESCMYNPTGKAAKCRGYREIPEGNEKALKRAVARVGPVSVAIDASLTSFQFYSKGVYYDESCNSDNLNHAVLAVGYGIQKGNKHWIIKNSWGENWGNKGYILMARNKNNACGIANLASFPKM
# [3] = tested on: MERS WT; experiment: microbe, parasite or virus in culture; format: cell-based
# [4] = molecular target: Cathepsin B (Homo sapiens, UniProt P07858); experiment: Cathepsin B enzyme assay; conditions: Cat B (μM), Ki by Morrison equation; pH 6.0, substrate Z-Phe-Arg-Amc
# [5] = tested on: EBOV WT (Ebola Wild Type); experiment: microbe, parasite or virus in culture; format: cell-based; conditions: read-out: EBOV WT (μM) (Ebola Wild Type)
# [6] = molecular target: Calpain; experiment: Calpain enzyme assay; format: biochemical; conditions: Ki by Morrison equation; pH 7.5, 5 mM CaCl2
# [7] = molecular target: Cathepsin L (Homo sapiens, UniProt P07711); experiment: Cathepsin L enzyme assay; format: biochemical; conditions: Ki by Morrison equation; pH 5.5, substrate Z-Phe-Arg-Amc; read-out: Cat L
# Cathepsin L, sequence (P07711 114-333, species assumed): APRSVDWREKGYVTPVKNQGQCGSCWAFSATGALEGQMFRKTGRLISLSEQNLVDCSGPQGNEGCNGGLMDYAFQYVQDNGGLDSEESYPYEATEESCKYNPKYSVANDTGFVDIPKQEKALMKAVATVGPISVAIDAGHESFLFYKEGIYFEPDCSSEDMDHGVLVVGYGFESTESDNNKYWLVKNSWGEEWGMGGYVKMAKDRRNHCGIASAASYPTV
# From the text: Two wells contained DMSO only for controls.
# Velocity was converted to μM/sec.
# [8] = molecular target: Cat S (Homo sapiens, UniProt P25774); experiment: Cat S inhibition; format: biochemical
# Cat S, sequence (P25774 115-331): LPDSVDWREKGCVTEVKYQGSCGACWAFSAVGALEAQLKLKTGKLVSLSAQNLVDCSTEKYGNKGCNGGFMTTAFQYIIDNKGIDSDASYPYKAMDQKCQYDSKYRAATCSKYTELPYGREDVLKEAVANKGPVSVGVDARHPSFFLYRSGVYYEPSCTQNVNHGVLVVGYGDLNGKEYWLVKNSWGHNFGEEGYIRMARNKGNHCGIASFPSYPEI
# [9] = tested on: Collagen; experiment: Fibrosis-Sirius Red Collagen Assay; format: cell-based
# [10] = Middle East respiratory syndrome-related coronavirus, read-out: MERS WT (μM)
SMILES,IC50 [1],Ki [2],"IC50 [3, 10]",Ki [4],IC50 ([5]; Zaire ebolavirus),Ki [6],Ki [7],Ki [8],IC50 ([3]; read-out: MERS WT),IC50 [5],IC50 [9]
"CC(C)CC(NC(=O)OCc1ccccc1)C(=O)NC(C)C(=O)C(=O)NCC(=O)NC(Cc1ccc2ccccc2c1)C(N)=O (stereo not drawn) [PHELIX184, benzyl (1-((4-((2-((1-amino-3-(naphthalen-2-yl)-1-oxopropan-2-yl)amino)-2-oxoethyl)amino)-3,4-dioxobutan-2-yl)amino)-4-methyl-1-oxopentan-2-yl)carbamate]",3.34 µM,0.5 nM,7.2 µM,0.641 µM,1.87 µM,10.3 nM,4.85 nM,1 nM,,,
"CC(NC(=O)C(Cc1ccccc1F)NC(=O)Cc1ccccc1)C(=O)C(=O)NC(Cc1ccccc1)C(=O)NC(C)(C)C(N)=O (stereo not drawn) [PHELIX207, N-(1-((1-amino-2-methyl-1-oxopropan-2-yl)amino)-1-oxo-3-phenylpropan-2-yl)-3-(3-(2-fluorophenyl)-2-(2-phenylacetamido)propanamido)-2-oxobutanamide]",,430 nM,195 µM,0.187 µM,8.59 µM,> 10000 nM,15 nM,2.6 nM,,,
"CC(NC(=O)C(Cc1ccc(F)cc1)NC(=O)Cc1ccccc1)C(=O)C(=O)NC(Cc1ccccc1)C(=O)NC(C)(C)C(N)=O (stereo not drawn) [PHELIX208, N-(1-((1-amino-2-methyl-1-oxopropan-2-yl)amino)-1-oxo-3-phenylpropan-2-yl)-3-(3-(4-fluorophenyl)-2-(2-phenylacetamido)propanamido)-2-oxobutanamide]",,1920 nM,184 µM,0.42 µM,8.15 µM,> 10000 nM,15.4 nM,3.73 nM,,,
"CC(NC(=O)C(Cc1cccc(C(F)(F)F)c1)NC(=O)Cc1ccccc1)C(=O)C(=O)NC(Cc1ccccc1)C(=O)NC(C)(C)C(N)=O (stereo not drawn) [PHELIX209, N-(1-((1-amino-2-methyl-1-oxopropan-2-yl)amino)-1-oxo-3-phenylpropan-2-yl)-2-oxo-3-(2-(2-phenylacetamido)-3-(3-(trifluoromethyl)phenyl)propanamido)butanamide]",,> 10000 nM,> 10 µM,0.234 µM,7.87 µM,> 10000 nM,66.3 nM,39.9 nM,,,
"CC(NC(=O)C(Cc1cccc(F)c1)NC(=O)Cc1ccccc1)C(=O)C(=O)NC(Cc1ccccc1)C(=O)NC(C)(C)C(N)=O (stereo not drawn) [PHELIX212, N-(1-((1-amino-2-methyl-1-oxopropan-2-yl)amino)-1-oxo-3-phenylpropan-2-yl)-3-(3-(3-fluorophenyl)-2-(2-phenylacetamido)propanamido)-2-oxobutanamide]",,1200 nM,139 µM,0.231 µM,7.41 µM,> 10000 nM,20.3 nM,13.7 nM,,,
"CC(C)CC(NC(=O)C(=O)C(C)NC(=O)C(Cc1ccccc1)NC(=O)Cc1ccccc1)C(=O)NC(C)(C)C(N)=O (stereo not drawn) [PHELIX214, N-(1-amino-2-methyl-1-oxopropan-2-yl)-4-methyl-2-(2-oxo-3-(3-phenyl-2-(2-phenylacetamido)propanamido)butanamido)pentanamide]",,2460 nM,> 10 µM,5.79 µM,24.2 µM,85400 nM,281 nM,39.8 nM,,,
"CC(NC(=O)C(Cc1ccccc1)NC(=O)Cc1ccccc1)C(=O)C(=O)NC(Cc1ccccc1)C(=O)NC(Cc1ccc2ccccc2c1)C(N)=O (stereo not drawn) [PHELIX220, N-(1-((1-amino-3-(naphthalen-2-yl)-1-oxopropan-2-yl)amino)-1-oxo-3-phenylpropan-2-yl)-2-oxo-3-(3-phenyl-2-(2-phenylacetamido)propanamido)butanamide]",,21.9 nM,,5.1 µM,,> 10000 nM,0.05 nM,0.22 nM,3.15 µM,0.06 µM,
"CC(NC(=O)C(Cc1ccccc1)NC(=O)Cc1ccccc1)C(=O)C(=O)NC(Cc1ccccc1)C(=O)NC(Cc1ccc(C(C)(C)C)cc1)C(N)=O (stereo not drawn) [PHELIX221, N-(1-((1-amino-3-(4-(tert-butyl)phenyl)-1-oxopropan-2-yl)amino)-1-oxo-3-phenylpropan-2-yl)-2-oxo-3-(3-phenyl-2-(2-phenylacetamido)propanamido)butanamide]",,13.6 nM,1.32 µM,3.57 µM,0.03 µM,> 10000 nM,0.02 nM,0.19 nM,,,
"CC(NC(=O)C(Cc1ccccc1)NC(=O)c1cccc(F)c1)C(=O)C(=O)NC(Cc1ccccc1)C(=O)NC(C)(C)C(N)=O (stereo not drawn) [PHELIX222, N-(1-((4-((1-((1-amino-2-methyl-1-oxopropan-2-yl)amino)-1-oxo-3-phenylpropan-2-yl)amino)-3,4-dioxobutan-2-yl)amino)-1-oxo-3-phenylpropan-2-yl)-3-fluorobenzamide]",,3320 nM,151 µM,1.83 µM,5.19 µM,> 10000 nM,25 nM,17.7 nM,,,
"CC(NC(=O)C(Cc1ccccc1)NC(=O)c1ccccc1)C(=O)C(=O)NC(Cc1ccccc1)C(=O)NC(C)(C)C(N)=O (stereo not drawn) [PHELIX223, N-(1-((4-((1-((1-amino-2-methyl-1-oxopropan-2-yl)amino)-1-oxo-3-phenylpropan-2-yl)amino)-3,4-dioxobutan-2-yl)amino)-1-oxo-3-phenylpropan-2-yl)benzamide]",,281 nM,35.3 µM,0.246 µM,5.61 µM,> 10000 nM,19.9 nM,4.44 nM,,,
"Cc1cccc(CC(=O)NC(Cc2ccccc2)C(=O)NC(C)C(=O)C(=O)NC(Cc2ccccc2)C(=O)NC(C)(C)C(N)=O)c1 (stereo not drawn) [PHELIX225, N-(1-((1-amino-2-methyl-1-oxopropan-2-yl)amino)-1-oxo-3-phenylpropan-2-yl)-2-oxo-3-(3-phenyl-2-(2-(m-tolyl)acetamido)propanmido)butanamide]",,254 nM,84.2 µM,0.299 µM,6.17 µM,> 10000 nM,18.6 nM,8.12 nM,,,
"CC(NC(=O)C(Cc1ccccc1)NC(=O)Cc1cccc(F)c1)C(=O)C(=O)NC(Cc1ccccc1)C(=O)NC(C)(C)C(N)=O (stereo not drawn) [PHELIX227, N-(1-((1-amino-2-methyl-1-oxopropan-2-yl)amino)-1-oxo-3-phenylpropan-2-yl)-3-(2-(2-(3-fluorophenyl)acetamido)-3-phenylpropanmido)-2-oxobutanamide]",,536 nM,> 10 µM,0.171 µM,16.8 µM,> 10000 nM,58.9 nM,16.3 nM,,,
"CC(C)CC(NC(=O)C(Cc1ccccc1)NC(=O)OCc1ccccc1)C(=O)NC(Cc1ccccc1)C(=O)C(=O)NC(CCCNC(=N)N)C(N)=O (stereo not drawn) [PHELIX254, benzyl (1-amino-10-benzyl-6-carbamoyl-1-imino-13-isobutyl-8,9,12,15-tetraoxo-17-phenyl-2,7,11,14-tetraazaheptadecan-16-yl)carbamate]",,,> 30 µM,0.0432 µM,,3.42 nM,0.71 nM,,,,3400 nM
"CCC(C)C(NC(=O)C(CC(C)C)NC(=O)C(Cc1ccccc1)NC(=O)OCc1ccccc1)C(=O)C(=O)NCC(=O)NC(Cc1ccc2ccccc2c1)C(N)=O (stereo not drawn) [PHELIX270, benzyl (1-amino-9-(sec-butyl)-12-isobutyl-2-(naphthalen-2-ylmethyl)-1,4,7,8,11,14-hexaoxo-16-phenyl-3,6,10,13-tetraazahexadecan-15-yl)carbamate] (Cbz-FL[X1]G[2Nal]-NH2; configuration not given here)",,,> 30 µM,> 10 µM,,0.53 nM,1.82 nM,,,,3100 nM
"CCC(C)C(NC(=O)C(CC(C)C)NC(=O)Cc1ccccc1)C(=O)C(=O)NCC(=O)NC(Cc1ccc2ccccc2c1)C(N)=O (stereo not drawn) [PHELIX300, N-(2-((1-amino-3-(naphthalen-2-yl)-1-oxopropan-2-yl)amino)-2-oxoethyl)-4-methyl-3-(4-methyl-2-(2-phenylacetamido)pentanamido)-2-oxohexanamide]",,,,,,0.81 nM,0.02 nM,,,,4500 nM
"CCC(C)C(NC(=O)C(CC(C)C)NC(=O)OCc1ccccc1)C(=O)C(=O)NCC(=O)N(C)C(Cc1ccccc1)C(N)=O (stereo not drawn) [PHELIX319, benzyl (1-((1-((2-((1-amino-1-oxo-3-phenylpropan-2-yl)(methyl)amino)-2-oxoethyl)amino)-4-methyl-1,2-dioxohexan-3-yl)amino)-4-methyl-1-oxopentan-2-yl)carbamate]",,,,0.456 µM,,0.68 nM,0.28 nM,,,,11700 nM
